Results on ten molecules are retold here after US8119635B2, “Diazabicyclic central nervous system active agents” (Abbott Laboratories, priority 2000, dated 2012).

Counter-ions that a name gives are not always drawn. Like-named read-outs stand apart in the source and are kept apart here. A value given as a limit tells only on which side of the number the result lay.

A word on the Ki: it is a measure of affinity in units of concentration, obtained from inhibition or displacement. The melting point is the temperature, or range, at which the solid turns liquid.

The test system of series [1] is Male Sprague-Dawley rats. The series can be described thus: Formalin test (analgesia). Type of series: in vivo. As to conditions: Rattus norvegicus, ip, intraperitoneally 5 minutes before injection of 50 μL 5% formalin into rear paw, nocifensive behaviors, read-out: (MED) minimally effective dose, formalin test. The procedure: Another in vivo protocol utilized to determine the effectiveness of nicotinic acetylcholine receptor ligands as analgesic agents was the formalin test.
Male Sprague-Dawley rats (Charles River, Portage, Mich.) weighing 200 to 400 grams were used for all experiments. After a 20 minute period of acclimation to individual cages, 50 μL of a 5% formalin solution was injected subcutaneous into the dorsal aspect of one of the rear paws and the rats were then returned to the clear observation cages suspended above mirror panels. […] Phase 1 of the formalin test was defined as the period of time immediately after injection of formalin until 10 minutes after the formalin injection (i.e., 0-10 minutes after formalin). Phase 2 was defined as the 20 minute period from 30 to 50 minutes after formalin injection. The investigator recorded nocifensive behaviors in the injected paw of four animals during the session by observing each animal for one 15 second observation period during each 1 minute interval. Nocifensive behaviors recorded included flinching, licking or biting the injected paw. In dose-response studies, the test compound (or saline) was administered intraperitoneally 5 minutes before injection of formalin.

Series [2] concerns the target T1, neuronal nicotinic acetylcholine receptors (Rattus norvegicus, UniProt P09483+P12390).
T1 construct: crude synaptic membrane preparations from whole rat brain; from tissue; host or cells: whole rat brain, crude synaptic membranes
Kind of series: Binding of [3H]-cytisine to neuronal nicotinic acetylcholine receptors, crude synaptic membranes from whole rat brain.

For series [3], the system named is mice. Kind of series: Mouse hot plate paradigm (analgesia). Type of series: in vivo. As to conditions: ip, 0.5 h, intraperitoneal, dosed 30 minutes prior to testing, hot plate 55° C., latency until the tenth jump, read-out: (MED) minimally effective dose, mouse hot plate. The procedure:
An in vivo protocol was utilized to determine the effectiveness of nicotinic acetylcholine receptor ligands as analgesic agents in the mouse hot plate paradigm.
Separate groups of mice, (n=8/group) were utilized for each dose group. All drugs were administered by the intraperitoneal route of administration. Test drugs were dissolved in water to make a 6.2 mM stock solution. Animals were dosed with this solution (10 mL/kg body weight) for a 62 micromol/kg dose. Lower doses were administered similarly, following serial dilution of the stock solution in half-log increments. Animals were dosed 30 minutes prior to testing in the hot plate. The hot-plate utilized was an automated analgesia monitor (Model #AHP16AN, Omnitech Electronics, Inc. of Columbus, Ohio). The temperature of the hot plate was maintained at 55° C. and a cut-off time of 180 seconds was utilized. Latency until the tenth jump was recorded as the dependent measure. An increase in the tenth jump latency relative to the control was considered an effect.

T1 sequence (P09483 31-630): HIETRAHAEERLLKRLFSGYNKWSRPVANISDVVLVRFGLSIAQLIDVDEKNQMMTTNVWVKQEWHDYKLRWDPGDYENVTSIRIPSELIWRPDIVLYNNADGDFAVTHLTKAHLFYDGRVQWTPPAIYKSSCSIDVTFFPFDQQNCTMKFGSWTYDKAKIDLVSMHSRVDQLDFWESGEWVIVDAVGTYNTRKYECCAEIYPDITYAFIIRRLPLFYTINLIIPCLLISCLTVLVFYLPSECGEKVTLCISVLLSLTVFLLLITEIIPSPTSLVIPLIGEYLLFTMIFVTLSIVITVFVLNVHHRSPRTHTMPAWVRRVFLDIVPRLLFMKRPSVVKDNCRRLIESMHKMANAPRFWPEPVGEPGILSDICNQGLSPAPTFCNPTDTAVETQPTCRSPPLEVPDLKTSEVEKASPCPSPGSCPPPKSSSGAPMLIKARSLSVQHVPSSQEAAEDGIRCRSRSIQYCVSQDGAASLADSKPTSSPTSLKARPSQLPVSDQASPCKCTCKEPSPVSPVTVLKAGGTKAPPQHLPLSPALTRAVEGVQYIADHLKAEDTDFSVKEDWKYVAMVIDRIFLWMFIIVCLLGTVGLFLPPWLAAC
T1 sequence (P12390 25-500): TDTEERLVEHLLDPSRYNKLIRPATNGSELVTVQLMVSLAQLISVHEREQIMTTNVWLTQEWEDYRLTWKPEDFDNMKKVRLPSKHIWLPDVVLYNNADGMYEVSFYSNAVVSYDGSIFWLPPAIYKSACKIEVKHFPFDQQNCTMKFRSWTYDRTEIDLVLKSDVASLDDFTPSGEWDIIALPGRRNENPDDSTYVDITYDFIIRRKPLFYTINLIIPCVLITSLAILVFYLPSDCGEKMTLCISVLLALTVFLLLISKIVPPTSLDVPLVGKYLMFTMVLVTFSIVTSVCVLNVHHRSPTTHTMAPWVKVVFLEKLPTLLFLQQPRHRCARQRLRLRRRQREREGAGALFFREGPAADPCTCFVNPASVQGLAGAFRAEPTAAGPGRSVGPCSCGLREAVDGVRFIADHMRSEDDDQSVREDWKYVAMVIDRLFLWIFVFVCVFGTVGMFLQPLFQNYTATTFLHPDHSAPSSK

Turning to `Cl.Cl.c1cncc(N2C[C@H]3CNC[C@H]3C2)c1` [Example 1, cis-2-(3-pyridinyl)octahydropyrrolo[3,4-c]pyrrole dihydrochloride], the melting point is 250 to 252 °C (dec.). Besides, in series [1], the minimal effective dose was determined as 0.62 µmol/kg. The Ki in series [2] amounted to 0.12 nM. For the same molecule, the minimal effective dose in series [3] turned out to be 19 µmol/kg.

For the molecule `CN1C[C@@H]2CN(c3cccnc3)C[C@@H]2C1.Cl` [Example 2, cis-2-methyl-5-(3-pyridinyl)octahydropyrrolo[3,4-c]pyrrole hydrochloride], the melting point was in the range of 207 to 209 °C. Further, in series [2], affinity was put at a Ki of 26 nM.

Turning to `Cl.Clc1ccc(N2C[C@H]3CNC[C@H]3C2)cn1` [Example 3, cis-2-(6-chloro-3-pyridinyl)octahydropyrrolo[3,4-c]pyrrole hydrochloride], the melting point is 230 to 236 °C (dec.). This molecule returned a Ki in series [2] of 0.2 nM. Besides, the minimal effective dose in series [3] was 6.2 µmol/kg.

`Cl.Cl.c1ccc2ncc(N3C[C@H]4CNC[C@H]4C3)cc2c1` [Example 5, cis-2-(3-quinolinyl)octahydropyrrolo[3,4-c]pyrrole dihydrochloride] registered a melting point of over 260 °C. The molecule also yielded an inhibition constant (Ki) in series [2] of 1.7 nM.

With `CCOc1cncc(N2C[C@H]3CNC[C@H]3C2)c1` [Example 8, cis-2-(5-ethoxy-3-pyridinyl)octahydropyrrolo[3,4-c]pyrrole dihydrochloride], the melting point was 226 to 227 °C. In series [2], the Ki stood at 0.04 nM. In series [3], the minimal effective dose turned out to be 6.2 µmol/kg.

`Cl.Cl.FC(F)(F)COc1cncc(N2C[C@H]3CNC[C@H]3C2)c1` [Example 12, cis-2-[5-(2,2,2-trifluoroethoxy)-3-pyridinyl]octahydropyrrolo[3,4-c]pyrrole dihydrochloride]: the melting point was 233 to 234 °C (dec.). The molecule further showed a Ki in series [2] of 0.05 nM. Besides, in series [3], the minimal effective dose was determined as 62 µmol/kg.

As to `Clc1ccc(N2C[C@@H]3CCN[C@@H]3C2)cn1` [Example 15, (3aS,6aS)-5-(6-chloro-3-pyridinyl)octahydropyrrolo[3,4-b]pyrrole dihydrochloride], the figures for the minimal effective dose in series [1] and in series [3] were over 6.2 µmol/kg and 19 µmol/kg, respectively. The same molecule showed a Ki in series [2] of 6.3 nM.

On to `Clc1cc(N2C[C@H]3CCN[C@H]3C2)cnc1Cl` [Example 24, (3aR,6aR)-5-(5,6-dichloro-3-pyridinyl)octahydropyrrolo[3,4-b]pyrrole hydrochloride], for which the minimal effective dose in series [1] and in series [3] was 6.2 µmol/kg throughout. Besides, in series [2], affinity was put at a Ki of 0.16 nM.

Regarding `c1cncc(N2C[C@H]3CCN[C@H]3C2)c1` [Example 28, (3aR,6aR)-5-(3-pyridinyl)octahydropyrrolo[3,4-b]pyrrole dihydrochloride], the minimal effective dose turned out to be 1.9 µmol/kg in series [1] and 6.2 µmol/kg in series [3]. The Ki in series [2] ([3H]-CYT 1.25 nM, whole rat brain membranes, 60 minutes at 4° C., IC50 converted to Ki by Cheng and Prusoff correction, read-out: Average Ki) was 0.34 nM.

On to `COc1cncc(N2C[C@H]3CCN[C@H]3C2)c1` [Example 29, (3aR,6aR)-5-(5-methoxy-3-pyridinyl)octahydropyrrolo[3,4-b]pyrrole dihydrochloride], for which the minimal effective dose in series [1] came to 6.2 µmol/kg; in series [3], 19 µmol/kg. Also, the affinity in series [2], expressed as Ki, was 0.35 nM.
